Laboratory results: paper PMC3085043 (Chemico-biological interactions, 2010)
Changes are numbered by the printed parent chain. Like-named read-outs stand apart in the source and are kept apart here.

Legend:
[1] = target: microsomal FAL-DH and GGAL-DH (Rattus norvegicus, UniProt P30839); experiment: NAD+-linked FAL-DH/GGAL-DH activity of solubilized hepatic microsomes; format: biochemical; conditions: solubilized hepatic microsomes, NAD+-linked oxidation
[2] = target: human carbonyl reductase 1 (Homo sapiens, UniProt P16152); experiment: Reduction of FAL and GGAL by carbonyl reductase 1; format: biochemical
human carbonyl reductase 1, sequence (P16152 whole entry): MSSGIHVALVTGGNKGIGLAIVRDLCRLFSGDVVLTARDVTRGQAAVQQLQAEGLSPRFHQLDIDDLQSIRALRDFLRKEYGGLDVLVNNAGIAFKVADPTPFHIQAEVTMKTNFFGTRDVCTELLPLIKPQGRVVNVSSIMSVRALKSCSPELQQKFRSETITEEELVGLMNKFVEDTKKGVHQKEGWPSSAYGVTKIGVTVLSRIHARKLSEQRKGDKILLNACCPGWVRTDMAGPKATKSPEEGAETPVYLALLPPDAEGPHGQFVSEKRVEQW

human AKR 1B10 = conditions: 0.1 M potassium phosphate pH 7.4, 0.1 mM NADPH; cited from earlier work
AKR 1A1 = target: T1, AKR 1A1 (Homo sapiens, UniProt P14550); experiment: Kinetic constants for FAL and GGAL reduction, AKR1A1; format: biochemical
T1 sequence (P14550 1-325): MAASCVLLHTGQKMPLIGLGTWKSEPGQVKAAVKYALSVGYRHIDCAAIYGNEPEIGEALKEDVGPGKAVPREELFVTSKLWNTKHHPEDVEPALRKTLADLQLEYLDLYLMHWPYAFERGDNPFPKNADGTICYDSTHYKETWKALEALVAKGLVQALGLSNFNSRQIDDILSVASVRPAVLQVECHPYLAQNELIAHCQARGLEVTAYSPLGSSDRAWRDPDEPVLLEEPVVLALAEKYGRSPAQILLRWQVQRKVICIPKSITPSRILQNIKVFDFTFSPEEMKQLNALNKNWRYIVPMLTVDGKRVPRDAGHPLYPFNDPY

AKR 1C1 = target: T2, AKR 1C1 (Homo sapiens, UniProt Q04828); experiment: Kinetic constants for FAL and GGAL reduction, AKR1C1; format: biochemical
T2 sequence (Q04828 1-323): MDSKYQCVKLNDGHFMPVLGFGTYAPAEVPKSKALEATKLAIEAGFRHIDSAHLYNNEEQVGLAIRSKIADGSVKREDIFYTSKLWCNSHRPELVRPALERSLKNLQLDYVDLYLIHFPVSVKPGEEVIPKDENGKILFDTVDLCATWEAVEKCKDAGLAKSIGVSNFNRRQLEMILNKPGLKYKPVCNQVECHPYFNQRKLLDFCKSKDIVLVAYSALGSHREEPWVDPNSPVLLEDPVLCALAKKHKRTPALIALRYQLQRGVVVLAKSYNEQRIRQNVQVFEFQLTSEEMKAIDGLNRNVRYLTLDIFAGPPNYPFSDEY

[3] = target: dehydrogenase/reductase (SDR family) member 4 (Homo sapiens, UniProt Q9BTZ2); experiment: Reduction of FAL and GGAL by dehydrogenase/reductase; format: biochemical
dehydrogenase/reductase (SDR family) member 4, sequence (Q9BTZ2 whole entry): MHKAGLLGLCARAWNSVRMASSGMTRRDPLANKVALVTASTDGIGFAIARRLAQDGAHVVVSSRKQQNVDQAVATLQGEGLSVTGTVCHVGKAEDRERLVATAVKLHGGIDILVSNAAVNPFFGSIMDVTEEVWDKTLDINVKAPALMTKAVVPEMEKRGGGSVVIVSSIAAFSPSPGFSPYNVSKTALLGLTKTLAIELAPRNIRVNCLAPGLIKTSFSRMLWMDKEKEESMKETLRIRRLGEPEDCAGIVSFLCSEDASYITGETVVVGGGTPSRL

[4] = target: dicarbonyl-xylulose reductase (Homo sapiens, UniProt Q7Z4W1); experiment: Reduction of FAL and GGAL by dicarbonyl-xylulose reductase; format: biochemical
dicarbonyl-xylulose reductase, sequence (Q7Z4W1 whole entry): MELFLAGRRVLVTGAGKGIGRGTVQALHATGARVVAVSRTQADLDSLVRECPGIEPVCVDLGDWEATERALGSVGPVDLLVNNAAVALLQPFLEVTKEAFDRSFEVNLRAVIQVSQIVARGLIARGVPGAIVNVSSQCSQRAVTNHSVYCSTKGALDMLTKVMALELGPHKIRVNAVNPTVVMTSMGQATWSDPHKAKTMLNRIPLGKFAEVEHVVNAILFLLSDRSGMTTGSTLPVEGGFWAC

AKR 1C3 = target: T3, AKR 1C3 (Homo sapiens, UniProt P42330); experiment: Kinetic constants for FAL and GGAL reduction, AKR1C3; format: biochemical; conditions: for Km / kcat: 0.1 M potassium phosphate pH 7.4, 0.1 mM NADPH
T3 sequence (P42330 1-323): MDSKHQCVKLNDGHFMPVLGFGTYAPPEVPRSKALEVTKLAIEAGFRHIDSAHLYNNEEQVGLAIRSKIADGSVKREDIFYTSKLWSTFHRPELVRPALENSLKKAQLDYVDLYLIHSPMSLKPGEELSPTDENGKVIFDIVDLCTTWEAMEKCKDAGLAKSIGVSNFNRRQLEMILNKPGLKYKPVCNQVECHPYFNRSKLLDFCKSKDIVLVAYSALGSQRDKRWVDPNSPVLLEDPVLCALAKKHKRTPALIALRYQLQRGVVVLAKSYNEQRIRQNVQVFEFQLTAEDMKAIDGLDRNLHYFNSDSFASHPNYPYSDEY

AKR1C15 [5] = target: T4, AKR1C15 (Rattus norvegicus, UniProt D3ZF77); conditions: NADPH-linked reduction; reported values; cited from earlier work
AKR 1C4 = target: T5, AKR 1C4 (Homo sapiens, UniProt P17516); experiment: Kinetic constants for FAL and GGAL reduction, AKR1C4; format: biochemical; conditions: 0.1 M potassium phosphate pH 7.4, 0.1 mM NADPH
T5 sequence (P17516 1-323): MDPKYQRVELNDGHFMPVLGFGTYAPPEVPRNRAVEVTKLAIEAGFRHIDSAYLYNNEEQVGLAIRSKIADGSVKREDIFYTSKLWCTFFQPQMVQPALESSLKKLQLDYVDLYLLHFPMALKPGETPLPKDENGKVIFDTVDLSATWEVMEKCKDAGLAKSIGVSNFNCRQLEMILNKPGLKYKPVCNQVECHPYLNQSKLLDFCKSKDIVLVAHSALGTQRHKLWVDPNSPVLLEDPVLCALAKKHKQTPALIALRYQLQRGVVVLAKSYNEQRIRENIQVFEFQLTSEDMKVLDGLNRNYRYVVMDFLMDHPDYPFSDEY

human AKR 1B1 = conditions: cited from earlier work
[6] = tested on: low-MW FAL-R and GGAL-R from liver; experiment: FAL-R/GGAL-R activity of low-MW reductase from rat liver; format: biochemical; conditions: liver low-MW reductase
[7] = target: T6, purified hepatic FAL-R (AKR1C9) (Rattus norvegicus, UniProt P23457); experiment: Reductase activity of hepatic low-MW FAL-R purified to homogeneity; conditions: purified liver enzyme
T6 sequence (P23457 1-322): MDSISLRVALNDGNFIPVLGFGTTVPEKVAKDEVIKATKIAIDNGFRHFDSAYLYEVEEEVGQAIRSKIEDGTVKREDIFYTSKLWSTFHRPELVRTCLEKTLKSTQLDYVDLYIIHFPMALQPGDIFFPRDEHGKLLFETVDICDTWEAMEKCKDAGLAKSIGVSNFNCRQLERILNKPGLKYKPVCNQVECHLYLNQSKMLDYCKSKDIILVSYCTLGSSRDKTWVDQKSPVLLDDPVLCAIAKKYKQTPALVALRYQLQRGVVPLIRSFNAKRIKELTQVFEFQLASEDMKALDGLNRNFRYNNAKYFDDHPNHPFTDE

AKR 1C2 = target: T7, AKR 1C2 (Homo sapiens, UniProt P52895); experiment: Kinetic constants for FAL and GGAL reduction, AKR1C2; format: biochemical
T7 sequence (P52895 1-323): T2 sequence (Q04828 1-323) with T38V, R47H, L54V, C87S, V151M, R170H, Q172L

[8] = target: T8, low-MW FAL-R and GGAL-R from stomach, lung and colon (Rattus norvegicus, UniProt D3ZF77); experiment: FAL-R/GGAL-R activity of low-MW reductases from rat stomach, lung and colon; format: biochemical; conditions: extra-hepatic enzymes (stomach, lung, colon)
T8 sequence (D3ZF77 1-324): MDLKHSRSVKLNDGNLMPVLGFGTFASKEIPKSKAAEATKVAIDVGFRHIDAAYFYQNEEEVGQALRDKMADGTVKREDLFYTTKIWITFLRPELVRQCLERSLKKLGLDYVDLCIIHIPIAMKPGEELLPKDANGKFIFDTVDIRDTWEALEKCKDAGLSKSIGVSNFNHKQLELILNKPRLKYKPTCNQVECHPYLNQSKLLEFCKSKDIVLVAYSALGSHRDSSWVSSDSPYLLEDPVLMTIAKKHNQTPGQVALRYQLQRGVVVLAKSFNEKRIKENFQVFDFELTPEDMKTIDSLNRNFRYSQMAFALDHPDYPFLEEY

AKR1C15 [9] = target: T4, AKR1C15; experiment: Reduction of isoprenyl aldehydes by AKR1C15; format: biochemical; conditions: NADPH-linked reduction
[10] = 0.1 M potassium phosphate pH 7.4, 0.1 mM NADPH
[11] = calculated from the specific activity with 10 μM GGAL

microsomal FAL-DH and GGAL-DH, sequence (P30839 whole entry): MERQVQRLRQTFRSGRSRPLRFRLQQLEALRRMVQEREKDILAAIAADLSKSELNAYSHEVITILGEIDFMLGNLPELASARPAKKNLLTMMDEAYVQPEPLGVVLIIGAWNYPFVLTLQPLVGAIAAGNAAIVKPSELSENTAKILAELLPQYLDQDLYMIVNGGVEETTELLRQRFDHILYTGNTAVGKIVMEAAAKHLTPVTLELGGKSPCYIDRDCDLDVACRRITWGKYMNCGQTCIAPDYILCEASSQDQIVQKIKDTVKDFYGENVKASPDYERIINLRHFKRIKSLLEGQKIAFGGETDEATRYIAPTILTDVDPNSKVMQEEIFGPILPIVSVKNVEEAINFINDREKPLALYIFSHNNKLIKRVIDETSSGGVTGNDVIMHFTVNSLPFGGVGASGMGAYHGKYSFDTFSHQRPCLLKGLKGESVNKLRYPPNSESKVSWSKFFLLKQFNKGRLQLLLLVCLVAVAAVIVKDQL

| Structure (SMILES) | Km [1] [µM] | Vmax [1] [mU/mg] | reduction by the enzyme [2] | Km (human AKR 1B10) [µM] | kcat (human AKR 1B10) [s⁻¹] | reduction by the enzyme [3] | reduction by the enzyme [4] | Km (AKR 1C3) [µM] | kcat (AKR 1C3) [s⁻¹] | Km (AKR 1C4) [µM] | kcat (AKR 1C4) [s⁻¹] | Km [6] [µM] | Km [7] [µM] | Km [8] [µM] | further results |
| --- | --- | --- | --- | --- | --- | --- | --- | --- | --- | --- | --- | --- | --- | --- | --- |
| CC(C)=CCCC(C)=CCCC(C)=CC=O [FAL, farnesal] | 2 | 12 | hardly reduced | 2.5 | 0.383 | hardly reduced | hardly reduced | 2.6 | 0.045 | 4.7 | 0.0183 | 26 | 30 | 6 to 8 | Km (AKR 1A1; [10]): 60 µM; kcat (AKR 1A1; [10]): 0.217 s⁻¹; Km (AKR 1C1; [10]): 3.1 µM; kcat (AKR 1C1; [10]): 0.0283 s⁻¹; Km (AKR1C15 [5]): 5.6 µM; Km (human AKR 1B1; [10]): 37 µM; kcat (human AKR 1B1; [10]): 0.45 s⁻¹; Km (AKR 1C2; [10]): 1.1 µM; kcat (AKR 1C2; [10]): 0.03 s⁻¹ |
| CC(C)=CCC/C(C)=C/CC/C(C)=C/CC/C(C)=C/C=O [GGAL, geranylgeranial] | 0.7 | 4.2 | hardly reduced | 0.9 | 0.125 | hardly reduced | hardly reduced | 0.3 | 0.06 | 1.1 | 0.0147 | 2.1 | 3.9 | 0.2 to 0.5 | Km (AKR1C15 [9]): 0.2 µM; kcat (value in parenthesis) (AKR 1A1; [11]): (0.8) ^b min^−1; kcat (value in parenthesis) (AKR 1C1; [11]): (0.3) ^b min^−1; kcat/Km value relative to that for prostaglandin D2 (AKR 1C3; higher than for prostaglandin D2, best known endogenous substrate): 12 fold; kcat (value in parenthesis) (human AKR 1B1; [11]): (0.3) ^b min^−1; kcat (value in parenthesis) (AKR 1C2; [11]): (0.4) ^b min^−1 |
